Measured values: patent publication US20250221982A1, “COMPOSITIONS AND METHODS FOR LOCAL DELIVERY OF PHARMACEUTICAL AGENTS TO TREAT CANCER” (The General Hospital Corporation, priority 2018, published 2025)

Assays:
[1] = system: PyMTtg primary breast cancer cells; assay: Topical treatment of subcutaneous PyMTtg breast cancer tumors in mice; format: in vivo, mouse (wild-type C57BL/6); settings: two topical applications; calcipotriene 80 nmol, imiquimod 5% cream; compared to EtOH plus control cream; p=0.011 for the combination
Description: PyMTtg primary breast cancer cells are implanted subcutaneously into the inguinal regions of wild-type C57BL/6 mice. When tumors reached 5 mm in diameter (day 13), the following topical treatments applied to the tumor sites twice: (a) 80nmol calcipotriene in 20 microliters of 100% EtOH followed by 5% imiquimod cream, (b) 80nmol calcipotriene in 20 microliter 100% EtOH followed by moisturizing (control) cream, (c) 20 microliter 100% EtOH followed by 5% imiquimod cream, and (d) 20 microliter 100% EtOH followed by moisturizing (control) cream.
Breast cancer cells were obtained from PyMTtg mice that develop spontaneous breast cancer resembling luminal type of breast cancer in humans^12. Breast cancers of PyMTtg mice were harvested before the tumors reached 2 cm in diameter. Cancers were excised and dissociated into single cell suspension. Breast cancer cells were re-suspended at a concentration of 1×10^6 cells per 100 μl of 1:1 ratio of RPMI and Matrigel Membrane Matrix (Corning). Inguinal regions of recipient mice were shaved prior to cancer cell injection. 1×10^6 cells were injected subcutaneously at day 0. Topical treatments were applied when tumor sizes reached 5 mm in diameter. […] Animals were monitored daily and tumors measured over time to determine the impact of topical treatments on breast cancer growth. […]

B16-F10 melanoma cells = assay: Topical calcipotriene plus IP DMXAA against subcutaneous B16-F10 melanoma in mice; format: in vivo, mouse (wild-type C57BL/6); settings: for T cell (CD3+CD19−) infiltrate within the treated melanoma tumors / proliferation (Ki67+) of CD4+ and CD8+ tumor infiltrating T lymphocytes (melanoma tumors): flow cytometry at harvest; for cutaneous melanoma growth (tumor volume over time): three applications, topical calcipotriene 40 nmol, IP DMXAA 400 μg, compared to EtOH plus saline, p=0.019 for the combination
Experimental: (2A) Schematic diagram of the experimental protocol used to determine the efficacy of calcipotriene plus DMXAA as a localized immunotherapy for melanoma. B16-F10 melanoma cells are implanted subcutaneously into the flanks of wild-type C57BL/6 mice. When tumors reached 5 mm in diameter (day 14), the following treatments were applied three times: (a) 40 nmol calcipotriene in 20 microliters of 100% EtOH followed by IP injection of 400 μg DMXAA in 100 μl saline, (b) 40nmol calcipotriene in 20 microliters of 100% EtOH followed by IP injection of 100 μl saline, (c) 20 microliters of 100% EtOH followed by IP injection of 400 μg DMXAA in 100 μl saline, and (d) 20 microliter 100% EtOH followed by IP injection of 100 μl saline.
Melanoma Cells (B16-F10, ATCC, Manassas, VA) were injected subcutaneously into flanks of mice at 2×10^5 cells per 100 μl of 1:1 ratio of DMEM (Corning) at day 0. Flank regions of recipient mice were shaved prior to cancer cell injection. Topical treatment with calcipotriene or EtOH together with intraperitoneal (IP) injection of DMXAA (murine STING agonist, 5,6-Dimethylxanthenone-4-acetic Acid, ASA404, or Vadimezan) or normal saline were initiated when tumor sizes reached 5 mm in diameter. Mice were divided into 4 groups and were treated topically with either calcipotriene (40 nmol) or ethanol (EtOH) as carrier directly on the tumor sites. Following treatment of either calcipotriene or EtOH (control), mice were injected IP with either 400 μg DMXAA in 100 μl normal saline or normal saline alone (control). Calcipotriene/EtOH and DMXAA/saline treatments were re-applied two more times (FIG. 2A). Animals were monitored daily and tumors measured over time to determine the impact of treatments on melanoma growth. At harvest, tumors were weighed, and the tumor infiltrating T cells were profiled using flow cytometry.

SMILES	cutaneous breast tumor growth (tumor volume over time) [1]	T cell (CD3+CD19−) infiltrate within the treated melanoma tumors (B16-F10 melanoma cells)	proliferation (Ki67+) of CD4+ and CD8+ tumor infiltrating T lymphocytes (melanoma tumors) (B16-F10 melanoma cells)	cutaneous melanoma growth (tumor volume over time) (B16-F10 melanoma cells)
CC(C)Cn1cnc2c(N)nc3ccccc3c21 [imiquimod]	did not show a significant impact on breast cancer growth			
Cc1ccc2c(=O)c3cccc(CC(=O)O)c3oc2c1C [DMXAA, 5,6-Dimethylxanthenone-4-acetic Acid]		absent	absent	did not show a significant impact on melanoma development
C=C1/C(=C\C=C2/CCC[C@]3(C)[C@@H]([C@H](C)/C=C/[C@@H](O)C4CC4)CC[C@@H]23)C[C@@H](O)C[C@@H]1O [calcipotriene]	did not show a significant impact on breast cancer growth	absent	absent	showed efficacy in inhibiting melanoma growth
